Reference: patent publication US20030109523A1, “Bicyclic antagonists selective for the alphavbeta3 integrin” (Wyeth, priority 1999, published 2003)
Counter-ions that a name gives are not always drawn. Like-named read-outs stand apart in the source and are kept apart here. Each block holds one molecule with its values, some of them ahead of it. Ends that are not written are not given here. Peptide text beside a SMILES is read from it.

Tests used:
[1] = biological target: T1, Vitronectin Receptor (αVβ3) (Homo sapiens, UniProt P05106+P06756); test: Vitronectin Receptor (αVβ3) Binding Test Procedure
T1 construct: expressed in transfected cells; host or cells: 512P5 cells (plasma membrane preparation)
T1 sequence (P06756 31-889 limits assumed): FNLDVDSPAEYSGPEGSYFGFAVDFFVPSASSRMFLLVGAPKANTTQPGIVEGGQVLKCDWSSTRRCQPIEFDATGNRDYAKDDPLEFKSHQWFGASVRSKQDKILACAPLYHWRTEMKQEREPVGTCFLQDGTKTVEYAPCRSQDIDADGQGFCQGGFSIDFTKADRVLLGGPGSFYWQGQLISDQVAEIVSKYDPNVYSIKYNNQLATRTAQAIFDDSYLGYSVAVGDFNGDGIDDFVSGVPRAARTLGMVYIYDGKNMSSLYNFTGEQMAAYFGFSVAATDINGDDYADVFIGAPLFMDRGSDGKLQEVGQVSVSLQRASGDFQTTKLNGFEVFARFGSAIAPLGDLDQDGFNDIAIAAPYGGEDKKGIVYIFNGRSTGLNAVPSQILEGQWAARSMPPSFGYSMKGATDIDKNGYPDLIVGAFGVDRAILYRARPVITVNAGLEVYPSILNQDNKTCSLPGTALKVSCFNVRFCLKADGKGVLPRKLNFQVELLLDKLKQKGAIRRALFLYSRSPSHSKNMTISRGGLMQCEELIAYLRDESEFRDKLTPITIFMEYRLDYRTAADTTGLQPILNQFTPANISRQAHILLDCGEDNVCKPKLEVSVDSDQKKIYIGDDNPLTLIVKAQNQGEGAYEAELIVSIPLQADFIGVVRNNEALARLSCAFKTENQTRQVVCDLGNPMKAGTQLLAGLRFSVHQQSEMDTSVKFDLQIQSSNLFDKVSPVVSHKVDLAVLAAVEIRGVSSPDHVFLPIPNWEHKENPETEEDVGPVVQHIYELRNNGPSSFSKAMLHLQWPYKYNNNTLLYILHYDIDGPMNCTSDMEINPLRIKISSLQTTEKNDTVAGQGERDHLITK
T1 sequence (P06756 891-1048 partner limits assumed): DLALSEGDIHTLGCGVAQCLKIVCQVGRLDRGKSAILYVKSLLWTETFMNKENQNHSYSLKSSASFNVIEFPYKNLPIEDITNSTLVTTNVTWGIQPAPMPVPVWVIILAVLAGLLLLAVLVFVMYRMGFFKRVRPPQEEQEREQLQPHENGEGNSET
T1 sequence (P05106 27-788): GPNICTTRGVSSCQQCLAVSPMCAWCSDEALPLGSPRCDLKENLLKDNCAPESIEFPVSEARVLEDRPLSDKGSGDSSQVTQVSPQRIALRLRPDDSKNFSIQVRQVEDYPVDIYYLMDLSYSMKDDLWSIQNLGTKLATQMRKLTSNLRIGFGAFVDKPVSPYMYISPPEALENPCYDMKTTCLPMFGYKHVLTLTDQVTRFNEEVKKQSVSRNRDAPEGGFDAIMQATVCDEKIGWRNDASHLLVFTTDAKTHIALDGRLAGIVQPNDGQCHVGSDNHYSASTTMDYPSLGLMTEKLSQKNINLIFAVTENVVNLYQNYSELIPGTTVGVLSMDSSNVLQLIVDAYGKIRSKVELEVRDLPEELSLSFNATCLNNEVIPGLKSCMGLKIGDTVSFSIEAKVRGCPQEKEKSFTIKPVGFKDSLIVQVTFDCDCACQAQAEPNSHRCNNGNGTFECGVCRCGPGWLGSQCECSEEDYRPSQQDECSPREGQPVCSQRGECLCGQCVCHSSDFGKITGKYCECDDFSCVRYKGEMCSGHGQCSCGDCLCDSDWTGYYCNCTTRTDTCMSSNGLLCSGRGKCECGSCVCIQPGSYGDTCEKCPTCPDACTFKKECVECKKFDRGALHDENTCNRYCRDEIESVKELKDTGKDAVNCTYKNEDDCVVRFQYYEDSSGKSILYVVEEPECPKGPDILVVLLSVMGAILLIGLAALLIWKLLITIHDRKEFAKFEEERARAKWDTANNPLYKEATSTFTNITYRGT

αVβ3 integrin = biological target: T2, αVβ3 integrin (Homo sapiens, UniProt P05106+P06756); test: Osteopontin-αVβ3 Cell Attachment Test Procedure; assay type: cell-based
T2 construct: αVβ3-expressing cell lines are maintained by standard tissue culture techniques; endogenous in cells; host or cells: αVβ3-expressing cell lines
T2 sequence (P06756 31-889 limits assumed): as the sequence (P06756 31-889 limits assumed) above
T2 sequence (P06756 891-1048 partner limits assumed): as the sequence (P06756 891-1048 partner limits assumed) above
T2 sequence (P05106 27-788): as the sequence (P05106 27-788) above
Method: Osteopontin-αVβ3 Cell Attachment Test Procedure
Measuring the effect of compounds on the RGD-dependent attachment of cells to osteopontin mediated by the αVβ3 integrin.
Following incubation the wells were aspirated and washed once with D-PBS; plates can either be used immediately or stored for up to 1 week at 4° C. Prior to assay, the wells were blocked with 1% bovine serum albumin (BSA) in cell suspension media for 1 hour at 37° C. Following the blocking period, wells were aspirated and washed once with D-PBS.
αVβ3-expressing cell lines are maintained by standard tissue culture techniques. […] The cells were pelleted by low-speed centrifugation and washed three times with 0.5 mg/mL trypsin inhibitor in D-PBS (Sigma). The final cell pellet was resuspended in cell suspension media at a concentration of 10^6 cells/mL.
Incubation: 100 μL of diluted test compound was added to osteopontin-coated wells (in triplicate) followed by 100 μL of cell suspension; background cell attachment was determined in uncoated wells. The plate was incubated at 25° C. in a humidified air atmosphere for 1.5 hours. Following the incubation period, the wells were gently aspirated and washed once with D-PBS.
Cell Number Detection: The number of cells attached was determined by an MTT dye conversion assay (Promega) according to the manufacturer's instructions. Briefly, MTT dye was diluted in cell suspension media (15:85) and 100 μL was added to each well. […] The assay plates were covered and incubated at 37° C. in a humidified air atmosphere overnight.
The individual well optical density was expressed as a percentage of the maximal attachment (% Max) wells minus background attachment, and reported as the mean ±standard deviation.

αIIbβ3 integrin = biological target: T3, αIIbβ3 integrin (Homo sapiens, UniProt P05106+P08514); test: ADP-Induced Platelet Aggregation; assay type: cell-based; settings: for IC50: ADP 20 uM, human platelets; for remaining activity at 200 µM: percent of maximal aggregation; for ability to inhibit ADP induced platelet aggregation: reference peptides, at 200 μM
T3 construct: Human Platelets: Platelet-enriched plasma was obtained commercially from a donor pool; from tissue; host or cells: human platelet-rich plasma from a commercial donor pool
T3 sequence (P08514 32-887 limits assumed): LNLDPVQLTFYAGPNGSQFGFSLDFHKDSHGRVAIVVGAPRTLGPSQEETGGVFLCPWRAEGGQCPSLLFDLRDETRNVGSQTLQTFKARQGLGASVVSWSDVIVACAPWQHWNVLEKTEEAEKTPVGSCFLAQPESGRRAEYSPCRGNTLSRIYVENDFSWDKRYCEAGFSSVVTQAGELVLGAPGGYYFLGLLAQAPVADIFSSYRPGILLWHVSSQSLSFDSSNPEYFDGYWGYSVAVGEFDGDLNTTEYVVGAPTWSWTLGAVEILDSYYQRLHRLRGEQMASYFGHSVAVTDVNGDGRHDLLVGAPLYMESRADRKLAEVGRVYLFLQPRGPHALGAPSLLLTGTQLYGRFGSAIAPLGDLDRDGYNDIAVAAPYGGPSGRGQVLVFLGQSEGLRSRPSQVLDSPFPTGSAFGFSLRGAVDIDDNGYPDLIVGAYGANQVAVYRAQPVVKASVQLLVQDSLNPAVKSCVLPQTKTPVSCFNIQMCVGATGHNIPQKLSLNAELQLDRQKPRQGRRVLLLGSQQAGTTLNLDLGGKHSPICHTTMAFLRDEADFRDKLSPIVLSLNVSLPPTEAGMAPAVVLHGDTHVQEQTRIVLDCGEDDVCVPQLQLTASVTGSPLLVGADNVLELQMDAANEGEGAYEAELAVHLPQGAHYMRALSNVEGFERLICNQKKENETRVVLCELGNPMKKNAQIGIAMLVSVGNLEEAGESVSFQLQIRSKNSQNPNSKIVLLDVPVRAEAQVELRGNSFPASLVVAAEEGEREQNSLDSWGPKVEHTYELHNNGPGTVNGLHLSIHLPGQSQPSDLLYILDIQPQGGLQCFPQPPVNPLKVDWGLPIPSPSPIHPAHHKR
T3 sequence (P08514 891-1039 partner limits assumed): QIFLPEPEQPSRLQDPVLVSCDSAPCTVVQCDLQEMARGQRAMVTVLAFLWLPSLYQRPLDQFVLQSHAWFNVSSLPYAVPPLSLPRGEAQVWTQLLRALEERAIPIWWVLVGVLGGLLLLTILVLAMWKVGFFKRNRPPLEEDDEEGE
T3 sequence (P05106 27-788): as the sequence (P05106 27-788) above
Method: Measurement of the Effect of Compounds on ADP-Induced Platelet Aggregation
Measuring the effect of compounds on ADP-induced platelet aggregation mediated by a fibrinogen-αIIbβ3 integrin interaction.
Human Platelets: Platelet-enriched plasma was obtained commercially from a donor pool. The plasma was tested prior to shipment and found to be negative for HIV, HCV and Hepatitis B. Platelet-rich plasma (PRP) was obtained by diluting plasma to an approximate final concentration of 3×10(6) platelets per mL in platelet poor plasma (PPP). PPP was the supernatant of a lowspeed centrifugation of plasma.
Adenosine diphosphate (ADP): ADP was obtained commercially and diluted to 1 mM (stock solution) in distilled, deionized water (ddH2O).
Incubation: PRP and PPP were prewarmed in a water bath at 37° C. […] PRP plus sample compound in a final volume of 500 uL was added to a pre-warmed cuvette in a ChronoLog aggregometer. A control containing PRP and 5 uL of vehicle was treated similarly to the test cuvette; final vehicle concentration was 1%. The two cuvettes were incubated with stirring (1000 rpm) at 37° C. for 5 minutes. Five hundred microliters of PPP was used as a reference (100% aggregation).
Aggregation: To begin the test, ADP was added yielding a final concentration of 20 uM to both samples (plus and minus sample compound). Light transmittance was monitored continuously and compared to the reference cuvette. After five minutes, the test was terminated and the slope and maximal amplitude of the resulting aggregation plot was calculated by the aggregometer.
The percent of maximal aggregation is the ratio of the maximal aggregations of the sample cuvette to the control multiplied by 100 (% Max) and reported as the mean+−standard deviation.

osteoclasts = test: Osteoclast Bone Pitting; assay type: cell-based, rat
Method: Osteoclast Bone Pitting The test procedure was conducted as described by R. J. Murrills and D. W. […] At this pH the adherent osteoclasts excavate an adequate number of resorption pits for assay purposes. Slices were fixed in 2.5% glutaraldehyde and osteoclasts counted following tartrate-resistant acid phosphatase staining. […] All cells were stripped from the slice by sonication on 0.25M NH4OH and the resorption pits formed by the osteoclasts during the experiment stained with toluidine blue. Resorption pits were quantified by manually counting. The experiments were conducted according to a block design with osteoclasts from each animal exposed to each treatment. Three replicate slices were used per treatment per animal, such that a total of 96 slices were examined for an experiment involving four animals and eight treatments (including control). Several parameters were recorded on a “per slice” basis: number of pits, number of osteoclasts, number of pits per osteoclast, number of fibroblast-like bone cells. SAS or JMP statistical software were used for statistical analysis. […] IC50s were calculated using dose-response curves.

[2] = % Max = percentage of the specific binding, read-out: (αVβ3) RECEPTOR BINDING, % @ concentration
[3] = @ 100 μM, % of maximal attachment, read-out: (αVβ3) CELL ATTACHMENT, % @ concentration
[4] = Table VII, read-out: Platelet Aggregation αIIbβ3 IC50
[5] = attachment of cells to osteopontin, read-out: (αVβ3) IC50 CELL ATTACHMENT
[6] = read-out: (αVβ3) IC50 RECEPTOR BINDING
[7] = reference compounds, Table VI, read-out: IC50 (95% Confidence Interval)
[8] = reference RGD peptides, 125I-Echistatin 50 pM, read-out: IC50

Molecule: N=C(N)NCCCOc1ccc2c(c1)CC(CC(=O)O)CC2.O=C(O)C(F)(F)F (centres unmarked) [Example 40, [7-(3-Guanidino-propoxy)-1,2,3,4-tetrahydro-napthalen-2-yl]-acetic Acid Trifluoroacetate]
(αVβ3) RECEPTOR BINDING, % @ concentration [1]: 130% @30
BONE PITTING INHIBITION (osteoclasts; @ 238 μM): 39%@238
IC50 (αVβ3 integrin; [5]): 47 µM
IC50 (αIIbβ3 integrin; [4]): 148 µM

Molecule: N=C(N)NCCOc1ccc2c(c1)CCCC(CC(=O)O)C2 (centres unmarked) [Example 61, [2-(2-Guanidino-ethoxy)-6,7,8,9-tetrahydro-5H-benzocyclohepten-6-yl]-acetic Acid Hydrochloride]
IC50 [1, 6]: 1.7 µM
inhibition at 271 µM (osteoclasts; Rattus norvegicus, Osteoclast, @ 271 μM): 32%
IC50 (αVβ3 integrin; [5]): 62.2 µM
remaining activity at 200 µM (αIIbβ3 integrin; Table VII): 85.3%

Molecule: N=C(N)NCCCCOc1ccc2c(c1)CCCC(CC(=O)O)C2 (centres unmarked) [Example 63, [2-(4-Guanidino-butoxy)-6,7,8,9-tetrahydro-5H-benzocyclohepten-6-yl]-acetic Acid Trifluoroacetate]
IC50 [1, 6]: 3.9 µM
IC50 (αVβ3 integrin; [5]): 32.8 µM
remaining activity at 200 µM (αIIbβ3 integrin; Table VII): 51.5%

Molecule: N=C(N)NCCC[C@H](NC(=O)CN)C(=O)NCC(=O)N[C@@H](CC(=O)O)C(=O)N[C@@H](CO)C(=O)N1CCC[C@H]1C(=O)O [GRGDSP, reference compound]
ability to inhibit ADP induced platelet aggregation (αIIbβ3 integrin; Table VI): Inactive at 200

Molecule: Calcitonin: anti-resorptive used in the clinic; reference compound of the bone pitting test is Rat Calcitonin (CGNLSTCMLGTYTQDLNKFHTFPQTSIGVGAP; ends and bridges not checked; cysteine pairing not given here; UniProt P01257 85-116, looked up) [reference compound]
osteoclast inhibitory activity in this test procedure (osteoclasts; statement in words): significant osteoclast inhibitory activity

Molecule: Echistatin [reference compound]
IC50 (αIIbβ3 integrin; [7]): 0.0156 µM

Molecule: GRGDNP [GRGDNP, reference compound]
IC50 [1, 8]: 0.237 µM
ability to inhibit ADP induced platelet aggregation (αIIbβ3 integrin; Table VI): Inactive at 200

Molecule: GRGDTP [GRGDTP, reference compound]
IC50 [1, 8]: 0.49 µM
IC50 (αVβ3 integrin): 5.2 µM
ability to inhibit ADP induced platelet aggregation (αIIbβ3 integrin; Table VI): Inactive at 200

Molecule: GRGESP [reference compound]
ability to inhibit αVβ3 binding ([1]; reference peptide, at 100 μm): inactive at 100 μm
ability to inhibit ADP induced platelet aggregation (αIIbβ3 integrin; Table VI): Inactive at 200

Further lines, with some results ahead:

remaining activity at 30 µM [1, 2]: 88%
remaining activity at 100 µM (αVβ3 integrin; [3]): 100%
IC50 (αIIbβ3 integrin; [4]): 160 µM
Molecule: CCOC(=O)CC1CCc2cc(OCCCNC(=N)N)ccc2C1 (centres unmarked) [Example 31, [6-(3-Guanidinopropoxy)-1,2,3,4-tetrahydro-napthalen-2-yl]-acetic Acid Ethyl Ester]

IC50 [1, 6]: 15.7 µM
IC50 (αVβ3 integrin; [5]): 111 µM
remaining activity at 200 µM (αIIbβ3 integrin; Table VII): 93.3%
Molecule: N=C(N)NCCOc1ccc2c(c1)NC(=O)C(CC(=O)O)C2 (centres unmarked) [Example 85, [7-(2-Guanidino-ethoxy)-2-oxo-1,2,3,4-tetrahydro-quinolin-3-yl]-acetic Acid Hydrochloride]
inhibition at 273 µM (osteoclasts; Rattus norvegicus, Osteoclast, @ 273 μM): 33%

IC50 [1, 6]: 8.9 µM
IC50 (αVβ3 integrin; [5]): 11.5 µM
IC50 (αIIbβ3 integrin; [4]): 107 µM
Molecule: N=C(N)NCCCC#Cc1ccc2c(c1)NC(=O)C(CC(=O)O)C2 (centres unmarked) [Example 101, [7-(5-Guanidino-pent-1-ynyl)-2-oxo-1,2,3,4-tetrahydro-quinolin-3-yl]-acetic Acid Trifluoroacetate]
inhibition at 221 µM (osteoclasts; Rattus norvegicus, Osteoclast, @ 221 μM): 51%

remaining activity at 20 µM (αVβ3 integrin; @ 20 μM, % of maximal attachment, read-out: (αVβ3) CELL ATTACHMENT, % @ concentration): 102%
remaining activity at 100 µM (αVβ3 integrin; [3]): 96.8%
remaining activity at 200 µM (αIIbβ3 integrin; Table VII): 94.8%
Molecule: N=C(N)NCCOc1ccc2cc(CC(=O)O)c(=O)[nH]c2c1 [Example 185, [7-(2-Guanidino-ethoxy)-2-oxo-1,2-dihydro-quinolin-3-yl]-acetic Acid]
inhibition at 239 µM (osteoclasts; Rattus norvegicus, Osteoclast, @ 239 μM): 58%

remaining activity at 3 µM ([1]; @ 3 μM, % Max = percentage of the specific binding, read-out: (αVβ3) RECEPTOR BINDING, % @ concentration): 98.7%
remaining activity at 10 µM ([1]; @ 10 μM, % Max = percentage of the specific binding, read-out: (αVβ3) RECEPTOR BINDING, % @ concentration): 98.3%
remaining activity at 30 µM [1, 2]: 102%
remaining activity at 100 µM [1, 2]: 99.3%
Molecule: COC(=O)CC1CCc2cc(OCCCNc3ncccn3)ccc2C1 (centres unmarked) [Example 212, {6-[3-(Pyrimidin-2-ylamino)-propoxy]-1,2,3,4-tetrahydro-naphthalen-2-yl}-acetic Acid Methyl Ester]

remaining activity at 100 µM [1, 2]: 54%
Molecule: O=C(O)CC1CCc2cc(OCCCNc3ncccn3)ccc2C1 (centres unmarked) [Example 213, {6-[3-(Pyrimidin-2-ylamino)-propoxy]-1,2,3,4-tetrahydro-naphthalen-2-yl}-acetic Acid]

IC50 [1, 6]: 60 µM
Molecule: CCOC(=O)CC1CCc2cc(OCCCNC3=NCCCN3)ccc2C1 (centres unmarked) [Example 216, {6-[3-(1,4,5,6-Tetrahydro-pyrimidin-2-ylamino)-propoxy]-1,2,3,4-tetrahydro-naphthalen-2-yl}-acetic Acid Ethyl Ester, Acetic Acid Salt]
inhibition at 200 µM (osteoclasts; Rattus norvegicus, Osteoclast, @ 200 μM): 95%

IC50 [1, 6]: 14.7 µM
remaining activity at 200 µM (αIIbβ3 integrin; Table VII): 98%
Molecule: Cc1ccc(S(=O)(=O)NC(=O)CC2CCc3cc(OCCCNC4=NCCCN4)ccc3C2)cc1 (centres unmarked) [Example 217, 4-Methyl-N-({6-[3-(1,4,5,6-tetrahydro-pyrimidin-2-ylamino)-propoxyl]1,2,3,4-tetrahydro-naphthalen-2-yl}-acetyl)-benzenesulfonamide, Trifluoroacetic Acid Salt]
inhibition at 1 µM (osteoclasts; Rattus norvegicus, Osteoclast, @ 1 μM): 51%

remaining activity at 100 µM (αVβ3 integrin; [3]): 100%
remaining activity at 200 µM (αIIbβ3 integrin; Table VII): 90.3%
Molecule: N=C(N)NCCOc1ccc2c(c1)CC(CCC(=O)O)C(=O)N2 (centres unmarked) [Example 222, 3-[6-(2-Guanidino-ethoxy)-2-oxo-1,2,3,4-tetrahydro-quinolin-3-yl]-propionic Acid]
inhibition at 22 µM (osteoclasts; Rattus norvegicus, Osteoclast, @ 22 μM): -58%

IC50 (αIIbβ3 integrin; [7]): 97.6 µM
Molecule: N=C(N)NCCC[C@H](N)C(=O)NCC(=O)N[C@@H](CC(=O)O)C(=O)N[C@@H](Cc1ccccc1)C(=O)O [RGDF, reference compound] (H-RGDF-OH; N-terminus and C-terminus assumed)

(αVβ3) CELL ATTACHMENT, % @ concentration (αVβ3 integrin; @ 20 μM, % of maximal attachment): 102%@ 20
(αVβ3) CELL ATTACHMENT, % @ concentration (αVβ3 integrin; @ 100 μM, % of maximal attachment): 84.2%@ 100
Molecule: [7-(2-Guanidino-ethoxy)-2-oxo-1,2-dihydro-quinolin-3-yl]propionic Acid Methyl Ester [Example 246]
BONE PITTING INHIBITION (osteoclasts; @ 26.2 μM): 52%@ 26.2
